Test results reported in patent US12624024B2, “EP2 antagonist compounds” (Reservoir Neuroscience, Inc., priority 2021, dated 2026).

Target: T1, EP2 receptor (Homo sapiens, UniProt P43116)
T1 construct: expressed in transfected cells; host or cells: CHO-K1 cells (ATCC), transient transfection with FuGENE 6
Experiment: EP2 Potency Assay (cAMP TR-FRET, CHO-K1 cells transfected with EP2 receptor, PGE2 at EC80)
Assay type: cell-based
Conditions: CHO-K1 cells expressing EP2, prostaglandin E2 at EC80, read-out: EP2 Potency (IC50 category)
Experimental: Compound potency was measured using a cAMP TR-FRET assay.
After 6 hours incubation, the cell media was replaced with F12 medium supplemented with 10% FBS and 100 U/ml Pen-Strep. 24 hours after transfection, cells were harvested and seeded at a density of 3000 cells/well in a 384 well plate to perform the cAMP assay, using the LANCE Ultra cAMP assay kit (PerkinElmer).
Plates were then centrifuged at 1000 rpm for 1 min, agitated at 600 rpm at R.T. for 2 min, and incubated at 25° C. for 5 min. The reference agonist, prostaglandin E2 (MCE), was added to each well at the appropriate concentration to reach its EC80 value. Plates were then centrifuged at 1000 rpm for 1 min, agitated at 600 rpm at R.T. for 2 min, and incubated at 25° C. for 30 min.
A dose-response curve was prepared by plotting percent inhibition for each compound concentration, and then IC50 was calculated by fitting a curve to the plotted values and extrapolating the IC50 concentration.

T1 sequence (P43116 whole entry): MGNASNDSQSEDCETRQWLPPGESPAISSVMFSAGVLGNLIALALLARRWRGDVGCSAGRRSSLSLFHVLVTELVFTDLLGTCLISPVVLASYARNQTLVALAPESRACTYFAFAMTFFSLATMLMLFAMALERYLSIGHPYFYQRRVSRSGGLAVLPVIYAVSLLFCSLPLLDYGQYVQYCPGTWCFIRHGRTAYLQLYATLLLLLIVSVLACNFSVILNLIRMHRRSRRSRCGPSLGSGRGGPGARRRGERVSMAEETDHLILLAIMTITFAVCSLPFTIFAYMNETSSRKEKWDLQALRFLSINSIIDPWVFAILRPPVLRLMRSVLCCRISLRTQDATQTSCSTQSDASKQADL

| Compound | IC50 |
| --- | --- |
| COc1cc(C(C)N2CCOc3c(Cl)cc(-n4ccc5cc(F)ccc54)cc3C2)ccn1 (racemic) [Compound 217, 9-chloro-7-(5-fluoroindol-1-yl)-4-[1-(2-methoxypyridin-4-yl)ethyl]-3,5-dihydro-2H-1,4-benzoxazepine] | > 5 µM |
| C[C@@H]1c2cc(-n3ccc4cc(F)ccc43)cc(Cl)c2OCCN1Cc1cc[nH]c(=O)c1 (single isomer, unassigned) [Compound 236] | > 5 µM |
| COc1ncc(CN2CCOc3c(Cl)cc(-n4ccc5cc(C(F)(F)F)ccc54)cc3C2)cn1 [Compound 15] | > 5 µM |
| COc1ncc(CN2CCOc3c(Cl)cc(-n4ccc5cc(N(C)C)ccc54)cc3C2)cn1 [Compound 18] | > 5 µM |
| COc1ccc2c(ccn2-c2cc(Cl)c3c(c2)CN(Cc2cnc(OC)nc2)CCO3)c1 [Compound 19] | > 5 µM |
| COc1ncc(CN2CCOc3c(Cl)cc(-n4ccc5cc(SC)ccc54)cc3C2)cn1 [Compound 21] | > 5 µM |
| COc1ncc(CN2CCOc3c(Cl)cc(-n4ccc5cc(Br)ccc54)cc3C2)cn1 [Compound 22] | > 5 µM |
| COc1ncc(CN2CCOc3c(Cl)cc(-n4ccc5cc(F)c(Cl)cc54)cc3C2)cn1 [Compound 28] | > 5 µM |
| COc1ncc(CN2CCOc3c(Cl)cc(-n4cc(Cl)c5cc(Cl)ccc54)cc3C2)cn1 [Compound 29] | > 5 µM |
| COc1ncc(CN2CCOc3c(Cl)cc(-n4ccc5cc(Cl)ncc54)cc3C2)cn1 [Compound 35] | > 5 µM |
| COc1ncc(CN2CCOc3c(Cl)cc(-n4ccc5cnccc54)cc3C2)cn1 [Compound 36] | > 5 µM |
| COc1ncc(CN2CCOc3c(Cl)cc(-c4cccc5nccn45)cc3C2)cn1 [Compound 39] | 1 to 5 µM |
| COc1ncc(CN2CCOc3c(Cl)cc(-c4ncc5ccccn45)cc3C2)cn1 [Compound 40, 9-chloro-7-{imidazo[1,5-a]pyridin-3-yl}-4-[(2-methoxypyrimidin-5-yl)methyl]-3,5-dihydro-2H-1,4-benzoxazepine] | 1 to 5 µM |
| COc1ncc(CN2CCOc3c(Cl)cc(-n4ccc5cncnc54)cc3C2)cn1 [Compound 42] | > 5 µM |
| COc1ncc(CN2CCOc3c(Cl)cc(-n4ccc5nccnc54)cc3C2)cn1 [Compound 43] | > 5 µM |
| COc1ncc(CN2CCOc3c(Cl)cc(-n4ccc5c4CCCC5)cc3C2)cn1 [Compound 44, 9-chloro-4-[(2-methoxypyrimidin-5-yl)methyl]-7-(4,5,6,7-tetrahydroindol-1-yl)-3,5-dihydro-2H-1,4-benzoxazepine] | 1 to 5 µM |
| COc1ncc(CN2CCOc3c(Cl)cc(N4Cc5ccc(F)cc5C4)cc3C2)cn1 [Compound 47, 9-chloro-7-(5-fluoro-1,3-dihydroisoindol-2-yl)-4-[(2-methoxypyrimidin-5-yl)methyl]-3,5-dihydro-2H-1,4-benzoxazepine] | 1 to 5 µM |
| COc1ncc(CN2CCOc3c(Cl)cc(N4Cc5ccccc5C4=O)cc3C2)cn1 [Compound 48] | > 5 µM |
| COc1ncc(CN2CCOc3c(Cl)cc(N4CCCc5cc(F)ccc54)cc3C2)cn1 [Compound 49, 9-chloro-7-(6-fluoro-3,4-dihydroquinolin-1(2H)-yl)-4-((2-methoxypyrimidin-5-yl)methyl)-2,3,4,5-tetrahydrobenzo[f][1,4]oxazepine] | > 5 µM |
| COc1ncc(CN2CCOc3c(Cl)cc(N4CCOc5cc(F)ccc54)cc3C2)cn1 [Compound 51, 9-chloro-7-(7-fluoro-2,3-dihydro-1,4-benzoxazin-4-yl)-4-[(2-methoxypyrimidin-5-yl)methyl]-3,5-dihydro-2H-1,4-benzoxazepine] | > 5 µM |
| COc1ncc(CN2CCOc3c(Cl)cc(N4CCSc5ccccc54)cc3C2)cn1 [Compound 52] | > 5 µM |
| COc1ncc(CN2CCOc3c(Cl)cc(N4CCS(=O)(=O)c5ccccc54)cc3C2)cn1 [Compound 53] | > 5 µM |
| COc1ncc(CN2CCOc3c(Cl)cc(-c4cccc5ccccc45)cc3C2)cn1 [Compound 54] | 1 to 5 µM |
| COc1ncc(CN2CCOc3c(Cl)cc(-c4cccc5c4CCCC5)cc3C2)cn1 [Compound 55] | > 5 µM |
| COc1ncc(CN2CCOc3c(Cl)cc(-c4coc5ccccc45)cc3C2)cn1 [Compound 56] | 1 to 5 µM |

The next lines start with the values.

| IC50 | Compound |
| --- | --- |
| 0.5 to 1 µM | COc1nccc(CN2Cc3cc(-n4ccc5cc(F)ccc54)cc(Cl)c3OC[C@H]2C)n1 [Compound 10] |
| 0.5 to 1 µM | C[C@@H]1COc2c(Cl)cc(-n3ccc4cc(F)ccc43)cc2CN1Cc1cc[nH]c(=O)n1 [Compound 12] |
| 0.5 to 1 µM | COc1ncc(CN2CCOc3c(Cl)cc(-n4ccc5cc(C)ccc54)cc3C2)cn1 [Compound 14] |
| 0.5 to 1 µM | COc1ncc(CN2CCOc3c(Cl)cc(-n4ccc5cc(C#N)ccc54)cc3C2)cn1 [Compound 16] |
| 1 to 5 µM | COc1ncc(CN2CCOc3c(Cl)cc(-n4cc(C(F)(F)F)c5ccccc54)cc3C2)cn1 [Compound 17, 9-chloro-4-[(2-methoxypyrimidin-5-yl)methyl]-7-[3-(trifluoromethyl)indol-1-yl]-3,5-dihydro-2H-1,4-benzoxazepine] |
| 0.5 to 1 µM | COc1ncc(CN2CCOc3c(Cl)cc(-n4ccc5cc(Cl)ccc54)cc3C2)cn1 [Compound 20] |
| 1 to 5 µM | COc1ncc(CN2CCOc3c(Cl)cc(-n4ccc5cc(F)c(F)cc54)cc3C2)cn1 [Compound 24] |
| 0.5 to 1 µM | COc1ncc(CN2CCOc3c(Cl)cc(-n4ccc5c(F)c(Cl)ccc54)cc3C2)cn1 [Compound 26] |
| 0.5 to 1 µM | COc1ncc(CN2CCOc3c(Cl)cc(-n4cc(Cl)c5cc(F)ccc54)cc3C2)cn1 [Compound 27] |
| 1 to 5 µM | COc1ncc(CN2CCOc3c(Cl)cc(-n4c(C)cc5cc(F)ccc54)cc3C2)cn1 [Compound 30] |
| 0.5 to 1 µM | COc1ncc(CN2CCOc3c(Cl)cc(-n4cc(C)c5cc(F)ccc54)cc3C2)cn1 [Compound 31] |
| 1 to 5 µM | COc1ncc(CN2CCOc3c(Cl)cc(-n4ccc5cccnc54)cc3C2)cn1 [Compound 32] |
| 1 to 5 µM | COc1ncc(CN2CCOc3c(Cl)cc(-n4ccc5cc(F)cnc54)cc3C2)cn1 [Compound 33, 9-chloro-7-(5-fluoro-1H-pyrrolo[2,3-b]pyridin-1-yl)-4-((2-methoxypyrimidin-5-yl)methyl)-2,3,4,5-tetrahydrobenzo[f][1,4]oxazepine] |
| 0.5 to 1 µM | COc1ncc(CN2CCOc3c(Cl)cc(-n4ccc5ncccc54)cc3C2)cn1 [Compound 37] |
| 1 to 5 µM | COc1ncc(CN2CCOc3c(Cl)cc(-n4ccc5nc(Cl)ccc54)cc3C2)cn1 [Compound 38] |
| 0.5 to 1 µM | COc1ncc(CN2CCOc3c(Cl)cc(-c4ncc5cc(Cl)ccn45)cc3C2)cn1 [Compound 41, 9-chloro-7-{7-chloroimidazo[1,5-a]pyridin-3-yl}-4-[(2-methoxypyrimidin-5-yl)methyl]-3,5-dihydro-2H-1,4-benzoxazepine] |
| 0.5 to 1 µM | COc1ncc(CN2CCOc3c(Cl)cc(N4CCc5cc(F)ccc54)cc3C2)cn1 [Compound 45, 9-chloro-7-(5-fluoro-2,3-dihydroindol-1-yl)-4-[(2-methoxypyrimidin-5-yl)methyl]-3,5-dihydro-2H-1,4-benzoxazepine] |
| 0.5 to 1 µM | COc1ncc(CN2CCOc3c(Cl)cc(N4CCc5cc(Cl)ccc54)cc3C2)cn1 [Compound 46, 9-chloro-7-(5-chloro-2,3-dihydroindol-1-yl)-4-[(2-methoxypyrimidin-5-yl)methyl]-3,5-dihydro-2H-1,4-benzoxazepine] |
